In the NIST ThermoML archive (doi:10.1021/je800429j):
± gives the expanded uncertainty stated by the source.

Settings: 283.15 K; 101.33 kPa; Liquid; Pycnometric method

- mass density: 1004.2 ± 1.6 kg/m3
Structure (SMILES): CCCCCC(=O)OCC(COC(=O)CCCCC)(COC(=O)CCCCC)COC(=O)CCCCC [pentaerythritol tetrahexanoate]
